# Patent US8476280B2, “Compositions and methods for combating lower urinary tract dysfunctions with delta opioid receptor agonists” (Versi Group, LLC, priority 2002, dated 2013)
# Legend:
# healthy conscious rats = test: Cystometric parameters in healthy conscious rats; type: in vivo, rat; settings: for frequency of bladder contractions / pressure of bladder contractions: oral administration via stomach cannula, recorded 120 minutes after administration; for inhibition of bladder contractions (micturition pressure): intravenous administration, recorded 90 minutes after injection
# Experimental: Male rats weighing 200 to 250 grams were used. The rats were housed with free access to food and maintained on forced 12 hours alternating light-dark cycle at 22-24° C. for at least one week, except during performance of the experiment.
# The rats were anesthetized with pentobarbital, 65 mg/kg i.p. and placed in a supine position. An approximately 10 mm long midline incision was made in the shaved and cleaned abdominal wall. The urinary bladder was freed from adhering tissues, emptied and then cannulated, via an incision at the dome with a polyethylene cannula (PE50), which was permanently sutured in place. The cannula was exteriorized through a subcutaneous tunnel in the retroscapular area, where it was connected with a plastic adapter to avoid the risk of removal by the rats. For intravenous (i.v.) injection of test compounds, a polyethylene tubing (PE50) was inserted into the jugular vein and exteriorized in the retroscapular area. Since cystometrographic parameters have been reported to be influenced by the time elapsed after catheter implantation, the rats were treated with 1 mg/kg Penicilline G, intramuscularly, to prevent infection and allowed to rest 3 days after implantation and before testing commenced.
# For oral administration of test compounds, a polyethylene tube (PE50) was inserted into the stomach and was permanently sutured in place. The cannula was exteriorized through a subcutaneous tunnel in the retroscapular area, where it was connected with a plastic adapter to avoid the risk of removal by the rats.
# On the day of the experiments, the rats were placed in Bollman's cages, the free tip of the bladder catheter was connected through a T-shaped tube to a pressure transducer (Grass PT300 or Gould P23) to record bladder pressure and to a peristaltic pump for continuous infusion, at a constant rate of […] of saline solution into the urinary bladder. The intraluminal pressure signal during infusion was continuously recorded. Two urodynamic parameters were evaluated: micturition pressure and interval between micturition that equates to volume capacity before detrusor contraction occurs (decrease in frequency of contractions). Micturition pressure is defined as the maximal intravesical pressure induced by the contraction of detrusor during micturition. Data was calculated as the mean of testing results for several animals at each dosage. The drug effects were expressed as a percent relative to activity of the control data, which was set at 100%.
# Infusion was commenced with saline solution to determine activity in rats without test compounds to be used as the control baseline. Saline solution infusion was interrupted and the test compounds were administered. At time points 90 minutes after intravenous administration and 120 minutes after oral drug administration, cystometrograms were recorded in each animal and the mean values of the recorded cystometrographic parameters were calculated.
# [1] = tested on: rats experiencing partial urethral restriction; test: Cystometric parameters in rats experiencing partial urethral restriction; type: in vivo, rat; settings: oral administration of 10 mg/kg
# From the text: Male rats weighing 200 to 250 grams were used. The method to produce bladder outlet obstructions thereby producing partial urethral restriction is essentially that reported by Malmgren et al, J. Urol. 137:1291-1294, the disclosure of which is hereby incorporated herein by reference. Following anesthetic induction, the ventral abdominal wall and perineum were shaved and cleaned with betadine. A lower midline abdominal incision was made, and the bladder and proximal urethra were identified. A plastic rod with a ˜1 mm outer diameter was placed parallel to the urethra, and a silk ligature was tied around the urethra and the plastic rod. […]
# On the day of testing, the bladder catheter was connected through a T-shaped tube to a pressure transducer (Grass PT300 or Gould P23) to record bladder pressure isovolumetrically and to a peristaltic pump for continuous infusion, at a constant rate of 0.1 ml/min, of saline solution into the urinary bladder. The pressure signal during infusion was continuously recorded.
# Two urodynamic parameters were evaluated in the test rats: micturition pressure and interval between voiding that equates to volume capacity before detrusor contraction occurs (decrease in frequency of contractions). Changes in bladder activity were recorded and expressed as pressure or volume over time.
SMILES,frequency of bladder contractions (healthy conscious rats),pressure of bladder contractions (healthy conscious rats),inhibition of bladder contractions (micturition pressure) (healthy conscious rats),frequency and intensity of pressure contractions ([1]; three test rats),volume capacity (bladder capacity before voiding) ([1]; trace 1d)
"C[C@@H]1CN(Cc2ccc(C(=O)O)cc2)[C@@H](C)CN1[C@H](c1ccc(S(=O)(=O)N(C)C)cc1)c1cccc(O)c1 [Compound 11, 4-{4-[(R)-(4-dimethylsulfamoyl-phenyl)-(3-hydroxyphenyl)methyl]-(2S,5R)-dimethylpiperazin-1-ylmethyl}benzoic acid]",a decrease in the frequency of bladder contractions,a decrease in the pressure of these contractions,,,
"C=CCN1C[C@H](C)N(C(c2ccc(C(=O)N(CC)CC)cc2)c2cccc(OCC(=O)O)c2)C[C@H]1C (stereo partly drawn) [Compound 3, 3-((alpha-R)-alpha-((2S,5R)-4-allyl-2,5-dimethyl-1-piperazinyl)-4-(diethylaminocarbonyl)benzyl)phenoxyacetic acid]",,,effected an inhibition of bladder contractions,,
"CCN(CC)C(=O)c1ccc(C(c2ccccc2)N2C[C@@H](C)N(Cc3ccc(F)cc3)C[C@@H]2C)cc1 (stereo partly drawn) [Compound 2, 4-((alpha-S)-alpha-((2S,5R)-2,5-Dimethyl-4-(4-fluorobenzyl)-1-piperazinyl)benzyl)-N,N-diethylbenzamide]",,,effected an inhibition of bladder contractions,,
"Cc1ccccc1[C@H](c1cccc(O)c1)N1C[C@@H](C)NC[C@@H]1C [Compound 10, 3-((S)-((2S,5R)-2,5-Dimethyl-1-piperazinyl)(2-methylphenyl)methyl)phenol]",,,effected an inhibition of bladder contractions,,
"C=CCN1C[C@H](C)N(C(c2ccccc2)c2cccc(C(=O)N(C)c3cccc(F)c3)c2)C[C@H]1C (stereo partly drawn) [Compound 4, 3-((alpha-S)-alpha-((2S,5R)-4-Allyl-2,5-dimethyl-1-piperazinyl)benzyl)-N-(3-fluorophenyl)-N-methylbenzamide]",,,effected an inhibition of bladder contractions,,
"CCN(CC)C(=O)c1ccc(C(c2ccccc2)N2C[C@@H](C)N(Cc3cccc(F)c3)C[C@@H]2C)cc1 (stereo partly drawn) [Compound 1, 4-((alpha-S)-alpha-((2S,5R)-2,5-Dimethyl-4-(3-fluorobenzyl)-1-piperazinyl)benzyl)-N,N-diethylbenzamide]",a decrease in the frequency of bladder contractions,a decrease in the pressure of these contractions,effected an inhibition of bladder contractions,marked improvement in both frequency and intensity of pressure contractions (reduced),volume capacity increased
